Experimental data published in US10683293B2, “Optionally fused heterocyclyl-substituted derivatives of pyrimidine useful for the treatment of inflammatory, metabolic, oncologic and autoimmune diseases” (NUEVOLUTION A/S, priority 2014, dated 2020).

Legend:
[1] = biological target: T1, human RORγt (Ligand Binding Domain) (Homo sapiens, UniProt P51449); assay: Fluorescence Polarization (FP) Assay; conditions: 100 nM human RORγt LBD, 25 nM TAMRA probe, values are activity range bounds
T1 construct: purchased Crelux (Planegg, Germany) batch no PC5032-1
T1 sequence (P51449 269-508 limits assumed): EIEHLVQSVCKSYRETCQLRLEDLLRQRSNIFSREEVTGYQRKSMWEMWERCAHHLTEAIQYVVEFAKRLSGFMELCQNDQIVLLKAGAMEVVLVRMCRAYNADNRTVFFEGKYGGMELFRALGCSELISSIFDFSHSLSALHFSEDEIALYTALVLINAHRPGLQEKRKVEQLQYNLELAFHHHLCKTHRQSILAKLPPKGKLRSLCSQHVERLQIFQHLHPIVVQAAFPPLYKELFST
Procedure, shortened: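 Binding to the RORγt ligand-binding domain was followed by FP. Displacement of a TAMRA-tagged RORγt ligand tracer (910 g/mol) was measured, with DMSO-only wells as negative control.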

[2] = biological target: T2, ligand binding domain of human RORγ (Homo sapiens, UniProt P51449); assay: RORγ Reporter Assay (Gal4); type: cell-based; conditions: for inhibition at 1 µM: HEK-293T, read-out: Gal4 activity range @ 1 μM (% inhibition); for Gal4 activity range @ 0.1 μM (% inhibition): RORγ Reporter Assay (Gal4), HEK293t reporter cells, compound at 0.1 μM, values are activity range bounds
T2 construct: host or cells: HEK293t
T2 sequence (P51449 269-508 limits assumed): T1 sequence (P51449 269-508 limits assumed)
Procedure, shortened: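 HEK293t cells expressing Gal4 DBD–human RORγ LBD hybrid with Gal4-UAS firefly luciferase reporter; compounds at final 1,000 nM and 100 nM (0.1% DMSO), triplicate, medium with 10% charcoal-stripped FBS, 24 h at 37 °C. Luminescence read; percent reduction of RORγ activity calculated versus vehicle-only wells.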

[3] = 1 μM test compound, HEK293t RORγ reporter cells, 24 hour

Structure (SMILES)	IC50 [1] [µM]	inhibition at 1 µM [2, 3] [%]	Gal4 activity range @ 0.1 μM (% inhibition) [2] [% inhibition]	Gal4 activity range @ 1 μM (% inhibition) ([2]; 1 μM test compound, HEK293t RORγ reporter cells, 24 hour, 1 µM) [%]
CC(C)c1ccc(CN(c2ncnc(NCc3ccc(CC(N)=O)cc3)c2F)C2CC2)cn1 [Example A97, 2-[4-[[[6-[cyclopropyl-[(6-isopropyl-3-pyridyl)methyl]amino]-5-fluoro-pyrimidin-4-yl]amino]methyl]phenyl]acetamide]	< 0.5	> 80	>50	
NC(=O)Cc1ccc(CNc2ncnc(N(Cc3cnc(C(F)(F)F)nc3)C3CC3)c2F)cc1 [Example A98, 2-[4-[[[6-[cyclopropyl-[[2-(trifluoromethyl)pyrimidin-5-yl]methyl]amino]-5-fluoro-pyrimidin-4-yl]amino]methyl]phenyl]acetamide]	< 0.5	> 80	>50	
CC(c1ccc(C(F)(F)F)nc1)N(c1ncnc(NCc2ccc(CC(N)=O)cc2)c1F)C1CC1 (stereo not shown) [Example A103, 2-[4-[[[6-[cyclopropyl-[1-[6-(trifluoromethyl)-3-pyridyl]ethyl]amino]-5-fluoro-pyrimidin-4-yl]amino]methyl]phenyl]acetamide]	< 1	> 80	>0	
CC(c1ccc(C(F)(F)F)cn1)N(c1ncnc(NCc2ccc(CC(N)=O)cc2)c1F)C1CC1 (stereo not shown) [Example A104, 2-[4-[[[6-[cyclopropyl-[1-[5-(trifluoromethyl)-2-pyridyl]ethyl]amino]-5-fluoro-pyrimidin-4-yl]amino]methyl]phenyl]acetamide]	< 1	> 80	>50	
NC(=O)Cc1ccc(CNc2cc(N(Cc3ccc(C(F)(F)F)cc3)C3CC3)ncn2)cc1 [Example A107, 2-[4-[[[6-[cyclopropyl-[[4-(trifluoromethyl)phenyl]methyl]amino]pyrimidin-4-yl]amino]methyl]phenyl]acetamide]	< 1	> 50	>0	
COc1ccc2cc(CN(C)c3ncnc(NCc4ccc(CC(N)=O)cc4)c3F)ccc2c1 [Example A120, 2-[4-[[[5-fluoro-6-[(6-methoxy-2-naphthyl)methyl-methyl-amino]pyrimidin-4-yl]amino]methyl]phenyl]acetamide]	< 0.5	> 80	>20	
Cc1nc(C)c(C(C)N(C)c2ncnc(NCc3ccc(CC(N)=O)cc3)c2F)s1 (stereo not shown) [Example A125, 2-[4-[[[6-[1-(2,4-dimethylthiazol-5-yl)ethyl-methyl-amino]-5-fluoro-pyrimidin-4-yl]amino]methyl]phenyl]acetamide]	< 0.5	> 50	>0	
Cc1ccc(CN(C)c2ncnc(NCc3ccc(CC(N)=O)cc3)c2F)c(C)c1 [Example A138, 2-[4-[[[6-[(2,4-dimethylphenyl)methyl-methyl-amino]-5-fluoro-pyrimidin-4-yl]amino]methyl]phenyl]acetamide]	< 0.5	> 20	>0	
CCN(CC1COc2ccccc2O1)c1ncnc(NCc2ccc(CC(N)=O)cc2)c1F (stereo not shown) [Example A145, 2-[4-[[[6-[2,3-dihydro-1,4-benzodioxin-3-ylmethyl(ethyl)amino]-5-fluoro-pyrimidin-4-yl]amino]methyl]phenyl]acetamide]	< 0.5	> 50	>0	
CN(C)CCNC(=O)CC1(CNc2ncnc(N(Cc3ccc(C(F)(F)F)cc3)C3CC3)c2F)CCOCC1 [Example A151, 2-[4-[[[6-[cyclopropyl-[[4-(trifluoromethyl)phenyl]methyl]amino]-5-fluoro-pyrimidin-4-yl]amino]methyl]tetrahydropyran-4-yl]-N-(2-dimethylaminoethyl)acetamide]	< 1	> 50	>0	
NC(=O)Cc1ccc(CNc2ncnc3c2ccn3Cc2ccc(C(F)(F)F)cc2)cc1 [Example A164, 2-[4-[[[7-[[4-(trifluoromethyl)phenyl]methyl]pyrrolo[2,3-d]pyrimidin-4-yl]amino]methyl]phenyl]acetamide]	< 1	> 50	>20	

The next lines start with the values.

IC50 [1] [µM]	inhibition at 1 µM [2, 3] [%]	Gal4 activity range @ 0.1 μM (% inhibition) [2] [% inhibition]	Gal4 activity range @ 1 μM (% inhibition) ([2]; 1 μM test compound, HEK293t RORγ reporter cells, 24 hour, 1 µM) [%]	Structure (SMILES)
< 0.5	> 50	>50		NC(=O)Cc1ccc(CNc2ncnc(N(Cc3cccc(C(F)(F)F)c3)C3CC3)c2F)cc1 [Example A101, 2-[4-[[[6-[cyclopropyl-[[3-(trifluoromethyl)phenyl]methyl]amino]-5-fluoro-pyrimidin-4-yl]amino]methyl]phenyl]acetamide]
< 2	> 80	>20		CS(=O)(=O)c1ccc(CNc2ncnc(N(Cc3ccc(C(F)(F)F)cn3)C3CC3)c2F)cn1 [Example A108, N4-cyclopropyl-5-fluoro-N6-[(6-methylsulfonyl-3-pyridyl)methyl]-N4-[[5-(trifluoromethyl)-2-pyridyl]methyl]pyrimidine-4,6-diamine]
< 0.5	> 80	>0		CS(=O)(=O)Nc1ncc(CNc2ncnc(N(Cc3ccc(C(F)(F)F)cc3)C3CC3)c2F)cc1F [Example A109, N-[5-[[[6-[cyclopropyl-[[4-(trifluoromethyl)phenyl]methyl]amino]-5-fluoro-pyrimidin-4-yl]amino]methyl]-3-fluoro-2-pyridyl]methanesulfonamide]
< 2	> 50	>0		CS(=O)(=O)c1ccc(CNc2ncnc(N(Cc3ccc(C(F)(F)F)nc3)C3CC3)c2F)cn1 [Example A110, N4-cyclopropyl-5-fluoro-N6-[(6-methylsulfonyl-3-pyridyl)methyl]-N4-[[6-(trifluoromethyl)-3-pyridyl]methyl]pyrimidine-4,6-diamine]
< 0.5		>0	>20	CCCn1nc(C)cc1CN(C)c1ncnc(NCc2ccc(CC(N)=O)cc2)c1F [Example A124, 2-[4-[[[5-fluoro-6-[methyl-[(5-methyl-2-propyl-pyrazol-3-yl)methyl]amino]pyrimidin-4-yl]amino]methyl]phenyl]acetamide]
< 0.5	> 50	>0		CN(Cc1cccc(-n2cccn2)c1)c1ncnc(NC[C@H]2CC[C@H](NS(=O)(=O)C(F)(F)F)CC2)c1F [Example A142, 1,1,1-trifluoro-N-[4-[[[5-fluoro-6-[methyl-[(3-pyrazol-1-ylphenyl)methyl]amino]pyrimidin-4-yl]amino]methyl]cyclohexyl] methanesulfonamide]
< 0.5	> 80	>20		CN(Cc1cccc(-n2cccn2)c1)c1ncnc(NCC2CCN(S(C)(=O)=O)CC2)c1F [Example A143, 5-fluoro-N6-methyl-N4-[(1-methylsulfonyl-4-piperidyl)methyl]-N6-[(3-pyrazol-1-ylphenyl)methyl]pyrimidine-4,6-diamine]
< 0.5	> 80	>50		CS(=O)(=O)c1ccc(CCNc2ncnc(N(Cc3ccc(C(F)(F)F)cc3)C3CC3)c2F)cc1 [Example A147, N4-cyclopropyl-5-fluoro-N6-[2-(4-methylsulfonylphenyl)ethyl]-N4-[[4-(trifluoromethyl)phenyl]methyl] pyrimidine-4,6-diamine]
< 0.5	> 20	>0		CCCn1nc(C)cc1CN(C)c1ncnc(NCC2CCN(S(C)(=O)=O)CC2)c1F [Example A148, 5-fluoro-N4-methyl-N4-[(5-methyl-2-propyl-pyrazol-3-yl)methyl]-N6-[(1-methylsulfonyl-4-piperidyl)methyl]pyrimidine-4,6-diamine]
< 0.5	> 20			CCCn1nc(C)cc1CN(C)c1ncnc(NCC2CCN(S(=O)(=O)C(F)F)CC2)c1F [Example A149, N6-[[1-(difluoromethylsulfonyl)-4-piperidyl]methyl]-5-fluoro-N4-methyl-N4-[(5-methyl-2-propyl-pyrazol-3-yl)methyl]pyrimidine-4,6-diamine]
< 2	> 20			CCCn1nc(C)cc1CN(C)c1ncnc(NCc2ccc(CC(=O)O)cc2)c1F [Example A150, 2-[4-[[[5-fluoro-6-[methyl-[(5-methyl-2-propyl-pyrazol-3-yl)methyl]amino]pyrimidin-4-yl]amino]methyl]phenyl]acetic acid]
